Values of other authors as cited in patent US20050004194A1, “Use of organic compounds” (priority 2003, published 2005).

Legend:
[1] = elderly heart failure patients, losartan versus captopril 50 mg t.i.d.
[2] = SAVE trial, patients after MI, captopril versus placebo

Compound	primary objective: tolerability and increase in serum creatinine [1]	all-cause mortality ([1]; 722 patients, based on only 49 deaths)	left ventricular remodeling [2]
CCCCc1nc(Cl)c(CO)n1Cc1ccc(-c2ccccc2-c2nn[nH]n2)cc1 [losartan]	no significant differences	statistically significant reduction	–
C[C@H](CS)C(=O)N1CCC[C@H]1C(=O)O [captopril]	–	–	improvement
